Common to all, as to assay: growth of human tumour cells (NCI), 48 h
The subject of assay [1] is NCI-H460 lung.
For assay [2], the system named is SK-MEL-2 melanoma.
In assay [3] the test system is SK-MEL-28 melanoma.
For assay [4], the system named is SW-620 colon.
For assay [5], the system named is A498 renal.
For assay [6], the system named is LOX IMVI melanoma.
In assay [7] the test system is HCT-15 colon.
In assay [8] the test system is SNB-19 CNS.
For assay [9], the system named is UACC-257 melanoma.
The subject of assay [10] is CAKI-1 renal.

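The compound was tested at five concentrations on cells cultured in 96-well plates, with a 48-hour exposure period. Here, GI50 denotes the concentration required for 50% inhibition of growth. TGI is the concentration that stops growth completely.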 Where only a bound is given, the exact number is not on record here.

On to `Nc1nc(Cl)cc2c1ncn2C1OC(CO)C(O)C1O` (configuration not stated), for which the GI50 in [1], in [2], in [3], in [4], in [5] and in assay [6] was above 100 µM throughout. The GI50 in assay [7], in assay [8] and in [9] was above 100 µM each time. For the same compound, the TGI in [1], in [2], in assay [3], in assay [4], in [5] and in assay [6] was above 100 µM each time. The TGI in [7], in assay [8] and in [9] was above 100 µM throughout.

Regarding `COc1cc(C2CC(c3ccc(C)cc3)=NN2C(C)=O)ccc1Oc1ccnc2cc(Cl)ccc12` (configuration not stated), the GI50 is 15.8 µM in [2]; above 100 µM in assay [3]; above 100 µM in assay [4]; 13.1 µM in [5]; above 100 µM in assay [7]; 37.4 µM in assay [8]. Also, the GI50 in assay [9] was above 100 µM. Besides, the TGI in assay [2] was 43.2 µM; in assay [3], above 100 µM; in assay [4] it was above 100 µM; in [5], 78 µM; in assay [7] it was above 100 µM; in assay [8] it was above 100 µM. In [9], this compound showed a TGI above 100 µM.

With `COc1ccc(OC)c(-c2cc(-c3ccc(Cl)cc3)nn2-c2ccc(S(N)(=O)=O)cc2)c1`, the GI50 is 10.6 µM in [1]; 35.1 µM in assay [2]; 11.2 µM in assay [10]; 4.29 µM in [4]; 13.9 µM in [5]; 2.84 µM in assay [7]. For the same compound, the GI50 in assay [9] is 3.98 µM. The TGI in [1] is 93 µM; in assay [2], above 100 µM; in assay [10], 29.3 µM; in assay [4], above 100 µM; in [5], 29.7 µM; in assay [7], 10.7 µM. Moreover, the TGI in assay [9] was found to be 16.4 µM.

For `CCCCC#Cc1c(I)n(C2OC(CO[Si](C)(C)C(C)(C)C)C3OC(C)(C)OC32)c(=O)[nH]c1=O` (configuration not stated), the GI50 in assay [2] is 1.37 µM; in assay [10], 12.5 µM; in [3], 1.84 µM; in assay [4], 1.8 µM; in assay [5], 13.3 µM; in assay [6], 3.39 µM. Besides, the GI50 was 2 µM in assay [7] and 3.1 µM in [9]. The TGI in assay [2] was 3.58 µM; in assay [10], 25.3 µM; in assay [3], 4.3 µM; in assay [4] it was 4.15 µM; in assay [5] it was 26 µM; in assay [6] it was above 100 µM. For the same compound, the TGI in [7] is above 100 µM; in assay [9] it was 15.5 µM.

`C=CC[n+]1c(/C=C2\Sc3ccccc3N2C)sc(-c2ccccc2)c1-c1ccccc1`: the GI50 in assay [1] was 0.284 µM; in [3], 0.421 µM; in assay [4], 0.366 µM; in assay [5] it was 0.264 µM; in assay [6], 0.34 µM; in [7], 2.18 µM. Besides, the GI50 was 0.375 µM in assay [8] and 0.239 µM in assay [9]. Besides, the TGI in [1] came out at 11.4 µM; in [3], 7.72 µM; in assay [4], 13.3 µM; in [5], 2.32 µM; in assay [6] it was 1.54 µM; in [7], 13.4 µM. The TGI turned out to be 15.1 µM in [8] and 0.737 µM in [9].

As to `COC(=O)C1=C(O)C(C(=O)OC)[C@@]2(O)[C@@H](C(=O)OC)C(c3ccc(OC(=O)C(Cc4ccccc4)NC(C)=O)cc3)C[C@@H]1[C@@H]2C(=O)OC` (some centres not stated), the GI50 in [1] is 20.5 µM; in assay [2], 47.4 µM; in assay [10] it was 38.7 µM; in assay [4] it was 29.7 µM; in assay [5], 24.5 µM; in [6], 18 µM. The values for the GI50 in assay [7], in assay [8] and in assay [9] were 13.3 µM, 36.4 µM and 13.9 µM, respectively. The TGI in [1] was above 100 µM; in assay [2], above 100 µM; in assay [10] it was above 100 µM; in assay [4] it was above 100 µM; in assay [5], 62.9 µM; in [6] it was 32.2 µM. Moreover, the TGI in assay [7] is 28.4 µM; in assay [8], above 100 µM; in assay [9] it was 50.5 µM.

On to `COc1cc2c3c(c1OC)C1(C=CC(=O)C=C1)CC3N(C(=O)OC(C)(C)C(Cl)(Cl)Cl)CC2` (configuration not stated), for which the TGI stood at 30.8 µM in assay [1]; 25.2 µM in [2]; 50.9 µM in assay [10]; 43.1 µM in assay [4]; 31.9 µM in assay [5]; 26.1 µM in [6]. The results for the TGI in assay [7], in assay [8] and in assay [9] were 23.6 µM, 32.2 µM and 26.2 µM, respectively.

Take `Cc1cccc2c1NC(c1c(C)[nH]c3ccccc13)C2` (configuration not stated): the TGI in assay [1], in [2], in [3], in assay [4], in [5] and in assay [6] was above 100 µM each time. Besides, the TGI in [7], in assay [8] and in [9] was above 100 µM in each case.

As for `COc1ccc2c(c1)C(CCN)C(=O)N2` (configuration not stated), the TGI in assay [1], in assay [2], in assay [10], in assay [3], in [4] and in assay [5] was above 100 µM in each case. The TGI in [6], in assay [7] and in assay [9] was above 100 µM in each case.

On to `CCCCCCCCOCC(O)COC` (configuration not stated), for which the TGI in assay [1], in assay [10], in assay [3], in assay [4], in [5] and in assay [6] was above 100 µM in each case. In addition, the TGI in assay [7], in [8] and in assay [9] was above 100 µM throughout.

Regarding `CN1CCN(c2nc(NCCNc3ccnc4cc(Cl)ccc34)c3ccccc3n2)CC1`, the GI50 in assay [1] is 1.7 µM; in [2] it was 1.98 µM; in [3] it was 1.83 µM; in [4], 0.391 µM; in [5] it was 12.3 µM; in assay [6], 1.63 µM. Further, the GI50 in [7] is 3.02 µM; in [8] it was 3.34 µM; in [9] it was 1.71 µM. Moreover, the TGI in [1] worked out at 6.49 µM; in assay [2], 4.19 µM; in assay [3], 3.39 µM; in assay [4] it was 13.3 µM; in assay [5], 25.5 µM; in assay [6], 3.34 µM. For the same compound, the TGI in assay [7] was 10.8 µM; in assay [8], 15.2 µM; in assay [9] it was 3.18 µM.

Take `O=C1/C=C(/c2ccc(O)cc2)[C@H](O)Cc2ccc(OC3OC(CO)C(O)C(O)C3O)cc2O1` (some centres not stated) (tested in a mixture with another compound): the TGI in assay [1], in assay [2], in [10], in assay [4], in assay [5] and in [6] was above 100 µM each time. Besides, the TGI in [7], in assay [8] and in [9] was above 100 µM throughout.

As for `COC1=C(C(=O)OC(C)(C)C)C23CCCCC2(C(C(=O)OC(C)(C)C)=C(OC)C3C(=O)OC(C)(C)C)C1C(=O)OC(C)(C)C` (configuration not stated), the TGI in assay [1], in assay [2], in assay [10], in assay [4], in assay [5] and in assay [6] was above 100 µM throughout. Moreover, the TGI in assay [7], in assay [8] and in assay [9] was above 100 µM in each case.

`COC(=O)C1=C(O)C(C(=O)OC)[C@@]2(O)[C@@H](C(=O)OC)C(c3ccccc3C(F)(F)F)C[C@@H]1[C@@H]2C(=O)OC` (some centres not stated): the GI50 is 3.11 µM in [1]; 19.7 µM in assay [2]; 2.71 µM in [10]; 2.13 µM in assay [3]; 4.02 µM in [4]; 3.05 µM in [5]. Also, the GI50 in assay [7] is 1.4 µM; in [8], 1.81 µM; in assay [9] it was 6.39 µM. Besides, the TGI in assay [1] was 10.5 µM; in assay [2], 36.4 µM; in assay [10], 6.73 µM; in [3], 14.5 µM; in assay [4], 20.1 µM; in assay [5], 7.62 µM. Further, the TGI was determined as 3.11 µM in [7], 13.6 µM in [8] and 20.3 µM in assay [9].

For the compound `COc1cc2c(cc1OC)[C@@H]1[C@H](C2=O)c2ccc([N+](=O)[O-])cc2C(=O)N1CCCBr`, the GI50 was 4.62 µM in assay [2]; below 0.01 µM in assay [10]; 2.54 µM in assay [3]; 0.213 µM in [4]; 0.666 µM in assay [5]; 0.2 µM in assay [6]. Besides, the figures for the GI50 in assay [7], in assay [8] and in [9] were 0.369 µM, 0.474 µM and 0.0737 µM, respectively. Moreover, the TGI was above 100 µM in assay [2]; above 100 µM in assay [3]; above 100 µM in assay [4]; 2.14 µM in assay [5]; 0.81 µM in assay [6]; 9.27 µM in [7]. Moreover, the TGI in assay [8] is above 100 µM; in assay [9] it was 0.893 µM.

Take `CC(=O)OCC1OC(n2c(-c3ccc(N)cc3)cc(-c3ccco3)c(C#N)c2=O)C(OC(C)=O)C(OC(C)=O)C1OC(C)=O` (configuration not stated): the TGI in assay [2], in [10], in assay [3], in assay [4], in assay [5] and in [6] was above 50 µM each time. Besides, the TGI in assay [7], in [8] and in assay [9] was above 50 µM throughout.

For the compound `N#CC1(Cc2ccccc2Cl)c2ccccc2C=CN1C(=O)c1ccccc1` (configuration not stated), the TGI in [2], in [3], in [4], in [5], in [6] and in assay [7] was above 100 µM throughout. Also, the TGI in [8] and in assay [9] was above 100 µM each time.

For the compound `Cc1cc(C)c2nc(Nc3nc(C)c(C)c(=O)[nH]3)nc(C)c2c1`, the GI50 in assay [1] is 2.99 µM; in assay [2] it was 2.27 µM; in assay [3], 2.35 µM; in assay [4] it was 3.12 µM; in [5] it was 2.02 µM; in assay [6], 1.92 µM. Also, the GI50 is 2.94 µM in assay [7], 3.19 µM in assay [8] and 2.82 µM in [9]. Also, the TGI in [1] was determined as 11.1 µM; in [2], 7.09 µM; in [3] it was 7.64 µM; in [4], 15.5 µM; in [5], 5.54 µM; in assay [6] it was 5.38 µM. The TGI in [7] came to 14.5 µM; in assay [8], 14.3 µM; in [9], 9.22 µM.

As for `O=C(Nc1ccc(Cl)cc1Cl)c1c/c(=N\O)c2ccc(O)cc2o1`, the TGI in [1], in assay [10], in assay [3], in assay [4], in assay [5] and in assay [6] was above 100 µM in each case. For the same compound, the TGI in assay [7], in assay [8] and in assay [9] was above 100 µM in each case.

On to `C=C1c2c(C)nn(-c3ccccc3)c2N(C)C23C[C@@H]1C1(C)c4c(C)nn(-c5ccccc5)c4N(C)C(C)(C[C@H]12)C3` (some centres not stated), for which the GI50 is 3.35 µM in assay [1]; 6.78 µM in assay [2]; 22.6 µM in assay [3]; 4.28 µM in [5]; 3.67 µM in [7]; 11 µM in assay [8]. For the same compound, the GI50 in assay [9] is 2.87 µM. Besides, the TGI in assay [1] was above 100 µM; in [2], 22 µM; in assay [3], above 100 µM; in assay [5] it was 45.9 µM; in assay [7], above 100 µM; in assay [8], 79.6 µM. The same compound registered a TGI in [9] above 100 µM.

Regarding `COc1ncn(C2C=C(CO)C(O)C2O)c(=O)n1` (configuration not stated), the TGI in assay [1], in [2], in [3], in assay [5], in [7] and in assay [9] was above 100 µM throughout.

(Values after PubChem BioAssay (NCI).)
